The numbers were not newly measured in US10583106B2, “Method of treating cancer by oral administration of acetate composition comprising magnesium acetate, calcium acetate or ethylacetate” (priority 2015, dated 2020), which cites them from elsewhere.

Series [1] relates to Fragile X syndrome patients. Conditions: 12 weeks; from ˜50%; cited from earlier work.
The test system of another series is cultured colon cells. Conditions: Mariadason, 2000; cited from earlier work.
Series [2] has as its system polyglutamine induced cell death. Conditions: McCampbell, 2001; cited from earlier work.

In the case of `CC[C@H](C)C(=O)O[C@H]1C[C@@H](C)C=C2C=C[C@H](C)[C@H](CC[C@@H]3C[C@@H](O)CC(=O)O3)[C@H]21` [Lovastatin], in series [1], the “Aberrant Behavior Checklist score” value is roughly 30%.
Take `CCCC(=O)[O-].[Na+]` [sodium butyrate]: in the series on cultured colon cells, the “number of genes modified relative to TSA” value was “roughly 10 times”. Also, in series [2], the “ability to reduce cell death” value is recorded as “reduction in cell death” and the “expression of AR [the mutant protein]” value is “slightly increased”.
